Reference: patent US20050197343A1, “Utilization of heteroarene carboxamide as dopamine-d3 ligands for the treatment of cns diseases” (priority 2002, published 2005)

Legend:
[1] = biological target: T1, D1 receptor (Sus scrofa, UniProt P50130); assay: radio ligand binding assay, D1 receptor, pig striatum membrane homogenates, [3H]SCH 23390; details: pD1; average of 2-9 experiments in triplicate
T1 construct: native membrane homogenates obtained from the striatum of a pig; from tissue; host or cells: pig striatum
Experimental: (§1) The biological activities of the compounds of the invention were determined in radio ligand binding assays.

[2] = biological target: T2, human D2long receptor (Homo sapiens, UniProt P14416); assay: radio ligand binding assay, CHO cell membrane homogenates, [3H]Spiperon, D2long; details: hD2long; average of 2-9 experiments in triplicate
T2 construct: expressed in transfected cells; host or cells: CHO cells (membrane homogenates)
Experimental: as §1

[3] = biological target: T3, human D2short receptor (Homo sapiens, UniProt P14416); assay: radio ligand binding assay, CHO cell membrane homogenates, [3H]Spiperon, D2short; details: hD2short; average of 2-9 experiments in triplicate
T3 construct: expressed in transfected cells; host or cells: CHO cells (membrane homogenates)
Experimental: as §1

[4] = biological target: T4, human D4.4 receptor (Homo sapiens, UniProt P21917); assay: radio ligand binding assay, CHO cell membrane homogenates, [3H]Spiperon, D4.4; details: hD4.4; average of 2-9 experiments in triplicate
T4 construct: expressed in transfected cells; host or cells: CHO cells (membrane homogenates)
T4 sequence (P21917 1-419): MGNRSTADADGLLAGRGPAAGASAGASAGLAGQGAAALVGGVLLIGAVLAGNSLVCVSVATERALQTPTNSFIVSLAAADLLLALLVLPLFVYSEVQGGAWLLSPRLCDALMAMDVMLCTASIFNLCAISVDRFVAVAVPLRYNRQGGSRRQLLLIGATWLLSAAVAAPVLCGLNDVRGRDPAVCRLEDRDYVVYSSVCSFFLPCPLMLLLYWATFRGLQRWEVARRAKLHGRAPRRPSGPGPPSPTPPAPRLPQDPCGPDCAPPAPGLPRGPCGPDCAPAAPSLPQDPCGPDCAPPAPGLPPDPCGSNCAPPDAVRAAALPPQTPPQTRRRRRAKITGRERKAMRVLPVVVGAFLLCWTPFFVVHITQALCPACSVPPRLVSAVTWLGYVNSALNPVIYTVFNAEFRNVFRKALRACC
Experimental: as §1

[5] = biological target: T5, serotonin receptor 5-HT2 (Sus scrofa, UniProt P50129); assay: radio ligand binding, pig cortex membrane preparations, [3H]Ketanserin with 10 μM Prazosin; details: p5-HT2; simultaneous incubation with 10 μM of Prazosin
T5 construct: cortex membrane preparations of a pig; from tissue; host or cells: pig cortex

[6] = biological target: T6, serotonin receptor 5-HT1A (Sus scrofa, UniProt A0A4X1UTF5); assay: radio ligand binding, pig cortex membrane preparations, [3H]8-OH-DPAT; details: read-out: Ki values 5-HT1A; p5-HT1A; [3H]8-OH-DPAT; average of 2 to 6 experiments
T6 sequence (A0A4X1UTF5 1-422): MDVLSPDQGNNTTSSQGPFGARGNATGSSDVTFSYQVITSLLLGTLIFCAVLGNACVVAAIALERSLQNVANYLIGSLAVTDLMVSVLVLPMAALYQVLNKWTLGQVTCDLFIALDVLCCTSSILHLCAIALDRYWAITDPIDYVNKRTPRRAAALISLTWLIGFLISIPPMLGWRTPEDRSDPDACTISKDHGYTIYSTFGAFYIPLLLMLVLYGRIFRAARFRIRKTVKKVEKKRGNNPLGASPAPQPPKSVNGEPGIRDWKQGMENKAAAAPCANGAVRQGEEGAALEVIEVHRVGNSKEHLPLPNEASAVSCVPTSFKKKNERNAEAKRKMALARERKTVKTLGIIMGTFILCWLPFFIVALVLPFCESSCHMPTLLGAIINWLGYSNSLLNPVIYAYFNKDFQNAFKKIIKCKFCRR

[7] = biological target: α1 receptors; assay: competitive experiment with the α1 selective radio ligand [3H]Prazosin; details: read-out: Ki values α1 (footnote d); pα1; competitive experiment with [3H]Prazosin
[8] = biological target: T7, D3 receptor (Homo sapiens, UniProt P35462); assay: radio ligand binding assay, CHO cell membrane homogenates, [3H]Spiperon, D3; set-up: expressed in transfected cells; host or cells: CHO cells (membrane homogenates); details: for Ki: hD3, average of 2-9 experiments in triplicate, read-out: Ki-values D3
Experimental: as §1

[9] = biological target: T7, D3 receptor; assay: mitogenesis assay (intrinsic activity); type: cell-based
Source text: D3 ligands may show agonistic, antagonistic or partial-agonistic activity on the D3 receptor. The respective intrinsic activities of the compounds of the invention may be measured in mitogenesis assays as described in literature (Hübner, H. et al. J. Med. Chem. 2000, 43, 4563-4569, and Löber, S. Bioorg. Med. Chem. Lett. 2002, 12.17, 2377-2380). Depending on the pathophysiology of the underlying disease, a stronger agonistic, stronger antagonistic or partial-agonistic activity may be desirable. The present invention therefore permits an excellent fine-tuning of the desired activity.
Tests to determine the intrinsic activity of the compounds of the examples were carried out in a mitogenesis assay as described in literature (Hübner, H. et al. J. Med. Chem. 2000, 43, 4563-4569; Löber, S. Bioorg. Med. Chem. Lett. 2002, 12.17, 2377-2380).

T7 sequence (P35462 whole entry): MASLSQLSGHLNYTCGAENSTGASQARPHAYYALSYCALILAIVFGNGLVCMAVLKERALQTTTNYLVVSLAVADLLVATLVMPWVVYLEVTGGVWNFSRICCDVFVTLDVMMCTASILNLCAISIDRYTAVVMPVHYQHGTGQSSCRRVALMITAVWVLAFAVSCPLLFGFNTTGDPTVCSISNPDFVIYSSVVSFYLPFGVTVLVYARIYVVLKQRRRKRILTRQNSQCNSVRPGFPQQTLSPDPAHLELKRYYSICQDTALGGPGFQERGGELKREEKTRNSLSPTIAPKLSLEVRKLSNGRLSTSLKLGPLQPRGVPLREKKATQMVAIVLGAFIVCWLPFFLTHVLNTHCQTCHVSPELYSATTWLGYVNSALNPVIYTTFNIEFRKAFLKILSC
T3 sequence (P14416 1-414 isoform P14416-2): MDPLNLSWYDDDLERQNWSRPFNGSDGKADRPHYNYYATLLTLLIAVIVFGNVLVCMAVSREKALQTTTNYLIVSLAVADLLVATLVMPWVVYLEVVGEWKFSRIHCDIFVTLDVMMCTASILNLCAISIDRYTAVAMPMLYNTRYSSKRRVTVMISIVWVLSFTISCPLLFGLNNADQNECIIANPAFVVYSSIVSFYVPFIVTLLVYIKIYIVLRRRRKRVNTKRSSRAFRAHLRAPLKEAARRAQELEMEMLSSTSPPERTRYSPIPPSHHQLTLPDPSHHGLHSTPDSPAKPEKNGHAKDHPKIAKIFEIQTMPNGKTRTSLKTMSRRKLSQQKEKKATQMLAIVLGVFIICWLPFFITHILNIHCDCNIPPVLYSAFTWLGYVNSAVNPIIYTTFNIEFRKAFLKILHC
T5 sequence (P50129 whole entry): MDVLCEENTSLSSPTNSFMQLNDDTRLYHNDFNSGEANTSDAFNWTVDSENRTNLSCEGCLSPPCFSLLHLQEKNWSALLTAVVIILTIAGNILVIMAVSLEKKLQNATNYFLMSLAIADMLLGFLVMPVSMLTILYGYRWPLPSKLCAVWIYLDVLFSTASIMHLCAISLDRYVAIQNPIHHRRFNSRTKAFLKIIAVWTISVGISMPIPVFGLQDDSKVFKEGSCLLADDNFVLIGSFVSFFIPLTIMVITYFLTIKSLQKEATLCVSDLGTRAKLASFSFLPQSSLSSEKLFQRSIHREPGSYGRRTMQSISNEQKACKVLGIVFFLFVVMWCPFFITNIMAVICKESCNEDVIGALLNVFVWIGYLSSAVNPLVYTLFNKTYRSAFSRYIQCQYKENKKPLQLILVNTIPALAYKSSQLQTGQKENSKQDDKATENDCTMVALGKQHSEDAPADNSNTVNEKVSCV
T1 sequence (P50130 whole entry): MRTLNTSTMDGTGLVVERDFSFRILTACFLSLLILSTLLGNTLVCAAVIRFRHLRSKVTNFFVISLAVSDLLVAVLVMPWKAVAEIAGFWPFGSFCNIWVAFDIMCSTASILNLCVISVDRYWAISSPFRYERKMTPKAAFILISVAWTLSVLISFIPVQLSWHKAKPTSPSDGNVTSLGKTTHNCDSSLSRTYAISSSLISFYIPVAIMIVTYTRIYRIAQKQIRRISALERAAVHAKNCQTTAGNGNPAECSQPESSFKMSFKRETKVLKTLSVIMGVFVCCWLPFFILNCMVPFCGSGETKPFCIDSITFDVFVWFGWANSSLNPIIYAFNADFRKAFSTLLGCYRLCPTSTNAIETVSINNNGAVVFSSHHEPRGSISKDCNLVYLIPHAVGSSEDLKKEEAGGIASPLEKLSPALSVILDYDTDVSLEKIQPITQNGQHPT
T2 sequence (P14416 whole entry): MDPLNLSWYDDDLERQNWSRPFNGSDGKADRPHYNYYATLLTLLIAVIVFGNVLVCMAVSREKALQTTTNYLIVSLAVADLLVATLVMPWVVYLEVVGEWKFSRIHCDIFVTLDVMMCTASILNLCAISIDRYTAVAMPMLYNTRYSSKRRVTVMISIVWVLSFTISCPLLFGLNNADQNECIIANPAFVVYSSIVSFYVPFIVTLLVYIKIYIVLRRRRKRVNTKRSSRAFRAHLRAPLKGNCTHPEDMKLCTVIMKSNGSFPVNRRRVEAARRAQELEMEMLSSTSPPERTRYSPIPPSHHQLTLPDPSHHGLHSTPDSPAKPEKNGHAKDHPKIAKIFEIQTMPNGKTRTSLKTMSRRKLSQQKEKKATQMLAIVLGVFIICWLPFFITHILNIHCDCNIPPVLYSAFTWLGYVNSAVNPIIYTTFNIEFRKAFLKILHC

| EC50 ([9]; curve calculation of the concentration-activity test) [nM] | partial agonistic activity, % of the maximum receptor stimulation ([9]; maximum triggered by the full agonist Quinpirol as reference) [%] | Compound | Ki [1] [nM] | Ki [2] [nM] | Ki [3] [nM] | Ki [4] [nM] | Ki [5] [nM] | Ki [6] [nM] | Ki [7] [nM] | D3 affinity (in words) [8] | Ki [8] [nM] | D3 selectivity D2long/D3 ([8]; ratio of Ki values) | D3 selectivity D2short/D3 ([8]; ratio of Ki values) | D3 selectivity D4.4/D3 ([8]; ratio of Ki values) |
| --- | --- | --- | --- | --- | --- | --- | --- | --- | --- | --- | --- | --- | --- | --- |
| – | – | O=C(NCCCCN1CCN(c2cccc(Cl)c2Cl)CC1)c1cc2cc(Br)ccc2o1 [Example 6, N-4-(4-(2,3-dichlorophenyl)piperazine-1-yl)butyl-5-bromo-2-benzo[b]furanylcarbarnide] | 2100 | 10000 | 4800 | 3100 | 540 | 2500 | 1300 | subnanomolar affinity | 3.4 | 2900 | 1400 | 910 |
| 0.38 | 49 | COc1ccccc1N1CCN(CCCCNC(=O)c2cc3ccccc3s2)CC1 [Example 1, N-4-(4-(2-methoxyphenyl)piperazine-1-yl)butyl-2-benzo[b]thiophenylcarbamide] | – | – | – | – | – | – | 6.4 | – | 0.23 to 0.57 | – | – | – |
